Data: patent US20230085307A1, “PYRIDAZINONE COMPOUND AND HERBICIDE” (NISSAN CHEMICAL CORPORATION, priority 2019, published 2023)

Tests used:
rice flat sedge = experiment: Test Example 3: herbicidal effect by foliage application, Wagner pot (Table 18, symbol E); format: in vivo, rice flat sedge (Cyperus iria)
Method: (§1) [Test Example 3] Herbicidal Effect Test by Foliage Application After alluvial soil was placed into 1/10000 are of Wagner pot, water was poured and mixed to form a submerged condition having a water depth of 0.1 cm to 0.5 cm. Seeds of barnyard grass, Chinese sprangletop, rice flat sedge, and rice were sowed and the pot was placed in a greenhouse at 25° C. to 30° C. for growth of the plants. After 14-day growth of the plants, the emulsion agent of the compound of the present invention prepared according to Formulation Example 2 was diluted with water so as to achieve a predetermined herbicide amount, and the diluted emulsion agent was uniformly applied to a foliage part with a small-sized spray. Three weeks after the herbicide application, the effect of the herbicide on each plant was evaluated according to the criteria of Test Example 1.

barnyard grass [1] = experiment: Test Example 3: herbicidal effect by foliage application, Wagner pot (Table 18, symbol H); format: in vivo, barnyard grass (Echinochloa crus-galli)
Method: as §1

Chinese sprangletop = experiment: Test Example 3: herbicidal effect by foliage application, Wagner pot (Table 18, symbol D); format: in vivo, chinese sprangletop (Leptochloa chinensis)
Method: as §1

lambsquarters = experiment: Test Example 5: herbicidal effect by foliage application, plastic box (Table 20, symbol O); format: in vivo, lambsquarters (Chenopodium album); settings: foliage application, 320 g/ha, three weeks after application
Excerpt: (§2) [Test Example 5] Herbicidal Effect Test by Foliage Application
(§3) Sterilized diluvial soil was placed in a plastic box having a length of 21 cm, a width of 13 cm, and a depth of 7 cm. The seeds of each of southern crabgrass, green foxtail, barnyard grass, wild oat, blackgrass, Italian ryegrass, windgrass, velvetleaf, redroot pigweed, lambsquarters, chickweed, false cleavers, persian speedwell, corn, soybean, rice, wheat, beet, and rapeseed were sowed in a spot-like manner and covered with the soil having a thickness of about 1.5 cm. Thereafter, the plants were grown in a greenhouse at 25° C. to 30° C. After 14-day growth of the plants, the emulsion agent of the compound of the present invention prepared according to Formulation Example 2 was diluted with water so as to achieve a predetermined herbicide amount, and the diluted emulsion agent was uniformly applied to a foliage part with a small-sized spray. Three weeks after the herbicide application, the effect of the herbicide on each plant was evaluated according to the criteria of Test Example 1.

windgrass = experiment: Test Example 5: herbicidal effect by foliage application, plastic box (Table 20, symbol L); format: in vivo, windgrass (Apera spica-venti); settings: foliage application, 320 g/ha, three weeks after application
Excerpt: as §2, §3

Italian ryegrass = experiment: Test Example 5: herbicidal effect by foliage application, plastic box (Table 20, symbol K); format: in vivo, Italian ryegrass (Lolium multiflorum); settings: foliage application, 320 g/ha, three weeks after application
Excerpt: as §2, §3

green foxtail = experiment: Test Example 5: herbicidal effect by foliage application, plastic box (Table 20, symbol G); format: in vivo, green foxtail (Setaria viridis); settings: foliage application, 320 g/ha, three weeks after application
Excerpt: as §2, §3

barnyard grass [2] = experiment: Test Example 5: herbicidal effect by foliage application, plastic box (Table 20, symbol H); format: in vivo, barnyard grass (Echinochloa crus-galli); settings: foliage application, 320 g/ha, three weeks after application
Excerpt: as §2, §3

velvetleaf = experiment: Test Example 5: herbicidal effect by foliage application, plastic box (Table 20, symbol M); format: in vivo, velvetleaf (Abutilon theophrasti); settings: foliage application, 320 g/ha, three weeks after application
Excerpt: as §2, §3

persian speedwell = experiment: Test Example 5: herbicidal effect by foliage application, plastic box (Table 20, symbol R); format: in vivo, Persian speedwell (Veronica persica); settings: foliage application, 320 g/ha, three weeks after application
Excerpt: as §2, §3

wild oat = experiment: Test Example 5: herbicidal effect by foliage application, plastic box (Table 20, symbol I); format: in vivo, wild oat (Avena fatua); settings: foliage application, 320 g/ha, three weeks after application
Excerpt: as §2, §3

southern crabgrass = experiment: Test Example 5: herbicidal effect by foliage application, plastic box (Table 20, symbol F); format: in vivo, southern crabgrass (Digitaria ciliaris); settings: foliage application, 320 g/ha, three weeks after application
Excerpt: as §2, §3

blackgrass = experiment: Test Example 5: herbicidal effect by foliage application, plastic box (Table 20, symbol J); format: in vivo, blackgrass (Alopecurus myosuroides); settings: foliage application, 320 g/ha, three weeks after application
Excerpt: as §2, §3

[3] = amount of applied herbicide 320 g/ha
[4] = amount of applied herbicide 101 g/ha
[5] = amount of applied herbicide 125 g/ha

## CCCC(=O)Oc1c(C)nn(C)c(=O)c1-c1c(-c2ccc(OC)nc2OC)sc2ccccc12 [1-080]
Rice flat sedge; 320 g/ha
  herbicidal effect on E (rice flat sedge), rating 0-5: 4 (Herbicidal rate of 70% or more and less than 90%)
Barnyard grass [1]; 320 g/ha
  herbicidal effect on H (barnyard grass), rating 0-5: 0 (Herbicidal rate of 5% or less (almost no effect))
Chinese sprangletop; 320 g/ha
  herbicidal effect on D (Chinese sprangletop), rating 0-5: 0 (Herbicidal rate of 5% or less (almost no effect))

## COc1nn(C)c(=O)c(-c2c(-c3ccc(Oc4ccccc4)cc3)sc3ccccc23)c1O [1-164]
Rice flat sedge; 80 g/ha
  herbicidal effect on E (rice flat sedge), rating 0-5: 4 (Herbicidal rate of 70% or more and less than 90%)
Barnyard grass [1]; 80 g/ha
  herbicidal effect on H (barnyard grass), rating 0-5: 4 (Herbicidal rate of 70% or more and less than 90%)
Chinese sprangletop; 80 g/ha
  herbicidal effect on D (Chinese sprangletop), rating 0-5: 4 (Herbicidal rate of 70% or more and less than 90%)

## CCCC(=O)Oc1c(OC)nn(C)c(=O)c1-c1c(-c2ccoc2)sc2ccccc12 [1-191]
Rice flat sedge; 80 g/ha
  herbicidal effect on E (rice flat sedge), rating 0-5: 4 (Herbicidal rate of 70% or more and less than 90%)
Barnyard grass [1]; 80 g/ha
  herbicidal effect on H (barnyard grass), rating 0-5: 2 (Herbicidal rate of 20% or more and less than 40%)
Chinese sprangletop; 80 g/ha
  herbicidal effect on D (Chinese sprangletop), rating 0-5: 5 (Herbicidal rate of 90% or more (almost completely withered))

## Cc1ccc2sc(-c3ccc4ccccc4c3)c(-c3c(O)c(C)nn(C)c3=O)c2c1 [2-154]
Rice flat sedge; [3]
  herbicidal effect on E: rice flat sedge: 3 (Herbicidal rate of 40% or more and less than 70%)
Barnyard grass [1]; [3]
  herbicidal effect on H: barnyard grass: 3 (Herbicidal rate of 40% or more and less than 70%)
Chinese sprangletop; [3]
  herbicidal effect on D: Chinese sprangletop: 0 (Herbicidal rate of 5% or less (almost no effect))

## CCCC(=O)Oc1c(C)nn(C)c(=O)c1-c1c(-c2cc(C(F)(F)F)cc(C(F)(F)F)c2)sc2ccc(F)cc12 [2-359]
Rice flat sedge; [3]
  herbicidal effect on E: rice flat sedge: 3 (Herbicidal rate of 40% or more and less than 70%)
Barnyard grass [1]; [3]
  herbicidal effect on H: barnyard grass: 3 (Herbicidal rate of 40% or more and less than 70%)
Chinese sprangletop; [3]
  herbicidal effect on D: Chinese sprangletop: 5 (Herbicidal rate of 90% or more (almost completely withered))

## COc1cc(F)ccc1-c1sc2ccc(S(C)(=O)=O)cc2c1-c1c(O)c(C)nn(C)c1=O [2-377]
Rice flat sedge; [4]
  herbicidal effect on E: rice flat sedge: 3 (Herbicidal rate of 40% or more and less than 70%)
Barnyard grass [1]; [4]
  herbicidal effect on H: barnyard grass: 4 (Herbicidal rate of 70% or more and less than 90%)
Chinese sprangletop; [4]
  herbicidal effect on D: Chinese sprangletop: 3 (Herbicidal rate of 40% or more and less than 70%)

## CCn1nc(C)c(O)c(-c2c(-c3ccc(Cl)cc3)sc3ccc(F)cc23)c1=O [2-400]
Rice flat sedge; [3]
  herbicidal effect on E: rice flat sedge: 5 (Herbicidal rate of 90% or more (almost completely withered))
Chinese sprangletop; [3]
  herbicidal effect on D: Chinese sprangletop: 5 (Herbicidal rate of 90% or more (almost completely withered))

## Cc1n[nH]c(=O)c(-c2c(-c3ccc(F)cc3)sc3ccc(F)cc23)c1O [2-428]
Rice flat sedge; [5]
  herbicidal effect on E: rice flat sedge: 0 (Herbicidal rate of 5% or less (almost no effect))
Barnyard grass [1]; [5]
  herbicidal effect on H: barnyard grass: 4 (Herbicidal rate of 70% or more and less than 90%)
Chinese sprangletop; [5]
  herbicidal effect on D: Chinese sprangletop: 0 (Herbicidal rate of 5% or less (almost no effect))

## Cc1nn(Cc2ccccc2)c(=O)c(-c2c(-c3ccc(Cl)cc3)sc3ccc(F)cc23)c1O [2-434]
Rice flat sedge; [3]
  herbicidal effect on E: rice flat sedge: 2 (Herbicidal rate of 20% or more and less than 40%)
Barnyard grass [1]; [3]
  herbicidal effect on H: barnyard grass: 2 (Herbicidal rate of 20% or more and less than 40%)

## Cc1nn(C)c(=O)c(-c2c(-c3ccc(OC(F)F)cc3)sc3c(C)cccc23)c1O [4-128]
Rice flat sedge; 320 g/ha
  herbicidal effect on rice flat sedge (E): 5 (Herbicidal rate of 90% or more (almost completely withered))
Barnyard grass [1]; 320 g/ha
  herbicidal effect on barnyard grass (H): 3 (Herbicidal rate of 40% or more and less than 70%)
Chinese sprangletop; 320 g/ha
  herbicidal effect on Chinese sprangletop (D): 0 (Herbicidal rate of 5% or less (almost no effect))

## Cc1nn(C)c(=O)c(-c2c(-c3ccc(C(=O)O)cc3)sc3cc(F)c(F)cc23)c1O [5-027]
Rice flat sedge; 320 g/ha
  herbicidal effect on rice flat sedge (E): 0 (Herbicidal rate of 5% or less (almost no effect))
Barnyard grass [1]; 320 g/ha
  herbicidal effect on barnyard grass (H): 3 (Herbicidal rate of 40% or more and less than 70%)
Chinese sprangletop; 320 g/ha
  herbicidal effect on Chinese sprangletop (D): 0 (Herbicidal rate of 5% or less (almost no effect))

## CCCC(=O)Oc1c(C)nn(C)c(=O)c1-c1c(-c2ccc(OC)c(OC)c2)sc2cc(OC)c(OC)cc12 [5-063]
lambsquarters
  herbicidal effect on lambsquarters (O): 0 (Herbicidal rate of 5% or less (almost no effect))
windgrass
  herbicidal effect on windgrass (L): 0 (Herbicidal rate of 5% or less (almost no effect))
Italian ryegrass
  herbicidal effect on Italian ryegrass (K): 1 (Herbicidal rate of 5% or more and less than 20%)
Green foxtail
  herbicidal effect on green foxtail (G): 0 (Herbicidal rate of 5% or less (almost no effect))
Barnyard grass [2]
  herbicidal effect on barnyard grass (H): 0 (Herbicidal rate of 5% or less (almost no effect))
velvetleaf
  herbicidal effect on velvetleaf (M): 0 (Herbicidal rate of 5% or less (almost no effect))
Persian speedwell
  herbicidal effect on persian speedwell (R): 0 (Herbicidal rate of 5% or less (almost no effect))
Rice flat sedge; 320 g/ha
  herbicidal effect on rice flat sedge (E): 2 (Herbicidal rate of 20% or more and less than 40%)
Wild oat
  herbicidal effect on wild oat (I): 0 (Herbicidal rate of 5% or less (almost no effect))
Barnyard grass [1]; 320 g/ha
  herbicidal effect on barnyard grass (H): 3 (Herbicidal rate of 40% or more and less than 70%)
Southern crabgrass
  herbicidal effect on southern crabgrass (F): 0 (Herbicidal rate of 5% or less (almost no effect))
blackgrass
  herbicidal effect on blackgrass (J): 0 (Herbicidal rate of 5% or less (almost no effect))
Chinese sprangletop; 320 g/ha
  herbicidal effect on Chinese sprangletop (D): 0 (Herbicidal rate of 5% or less (almost no effect))

## CCOc1cc(F)ccc1-c1cc2c(-c3c(O)c(C)nn(C)c3=O)c(-c3ccc(F)cc3OCC)sc2cc1OC [5-081]
Rice flat sedge; 320 g/ha
  herbicidal effect on rice flat sedge (E): 0 (Herbicidal rate of 5% or less (almost no effect))
Barnyard grass [1]; 320 g/ha
  herbicidal effect on barnyard grass (H): 2 (Herbicidal rate of 20% or more and less than 40%)
Chinese sprangletop; 320 g/ha
  herbicidal effect on Chinese sprangletop (D): 2 (Herbicidal rate of 20% or more and less than 40%)

## Cc1cc2sc(-c3ccc(C(F)(F)F)cc3)c(-c3c(O)c(C)nn(C)c3=O)c2cc1C [5-096]
Rice flat sedge; 320 g/ha
  herbicidal effect on rice flat sedge (E): 2 (Herbicidal rate of 20% or more and less than 40%)
Barnyard grass [1]; 320 g/ha
  herbicidal effect on barnyard grass (H): 3 (Herbicidal rate of 40% or more and less than 70%)
Chinese sprangletop; 320 g/ha
  herbicidal effect on Chinese sprangletop (D): 2 (Herbicidal rate of 20% or more and less than 40%)

## Cc1cc2sc(-c3ccc(C#N)cc3)c(-c3c(O)c(C)nn(C)c3=O)c2cc1C [5-100]
lambsquarters
  herbicidal effect on lambsquarters (O): 0 (Herbicidal rate of 5% or less (almost no effect))
windgrass
  herbicidal effect on windgrass (L): 0 (Herbicidal rate of 5% or less (almost no effect))
Italian ryegrass
  herbicidal effect on Italian ryegrass (K): 0 (Herbicidal rate of 5% or less (almost no effect))
Green foxtail
  herbicidal effect on green foxtail (G): 0 (Herbicidal rate of 5% or less (almost no effect))
Barnyard grass [2]
  herbicidal effect on barnyard grass (H): 0 (Herbicidal rate of 5% or less (almost no effect))
velvetleaf
  herbicidal effect on velvetleaf (M): 0 (Herbicidal rate of 5% or less (almost no effect))
Persian speedwell
  herbicidal effect on persian speedwell (R): 2 (Herbicidal rate of 20% or more and less than 40%)
Wild oat
  herbicidal effect on wild oat (I): 0 (Herbicidal rate of 5% or less (almost no effect))
Southern crabgrass
  herbicidal effect on southern crabgrass (F): 0 (Herbicidal rate of 5% or less (almost no effect))
blackgrass
  herbicidal effect on blackgrass (J): 0 (Herbicidal rate of 5% or less (almost no effect))

## Cc1ccc(-c2oc3ccc(F)cc3c2-c2c(O)c(C)nn(C)c2=O)cc1 [9-017]
Rice flat sedge; [3]
  Herbicidal effect on E (rice flat sedge), foliage application: 5 (Herbicidal rate of 90% or more (almost completely withered))
Barnyard grass [1]; [3]
  Herbicidal effect on H (barnyard grass), foliage application: 5 (Herbicidal rate of 90% or more (almost completely withered))
Chinese sprangletop; [3]
  Herbicidal effect on D (Chinese sprangletop), foliage application: 3 (Herbicidal rate of 40% or more and less than 70%)

## Cc1nn(C)c(=O)c(-c2c(-c3ccc(C(F)(F)F)cc3)oc3ccc(F)cc23)c1O [9-029]
Rice flat sedge; [3]
  Herbicidal effect on E (rice flat sedge), foliage application: 5 (Herbicidal rate of 90% or more (almost completely withered))
Barnyard grass [1]; [3]
  Herbicidal effect on H (barnyard grass), foliage application: 4 (Herbicidal rate of 70% or more and less than 90%)
Chinese sprangletop; [3]
  Herbicidal effect on D (Chinese sprangletop), foliage application: 3 (Herbicidal rate of 40% or more and less than 70%)
